In ChEMBL document CHEMBL3885881, “DrugMatrix”:

Organism: Rattus norvegicus
Assay: DrugMatrix - Regimen: Daily Repeat
Assay type: toxicity, organism-based, Sprague-Dawley
Set-up: regimen Daily Repeat, gender Male, age 6-8 weeks
Details: in vivo, sc, route subcutaneous, […]; for ABSOLUTE BASOPHIL / ABSOLUTE EOSINOPHIL / ABSOLUTE LYMPHOCYTE / ABSOLUTE MONOCYTE / ABSOLUTE SEGMENTED NEUTROPHIL / BASOPHIL / EOSINOPHIL / ERYTHROCYTE COUNT / HEMATOCRIT / HEMOGLOBIN / LEUKOCYTE COUNT / LYMPHOCYTE / MEAN CORPUSCULAR HEMOGLOBIN / MEAN CORPUSCULAR HEMOGLOBIN CONCENTRATION / MEAN CORPUSCULAR VOLUME / MONOCYTE / NEUTROPHIL / NUCLEATED RED BLOOD CELLS / PLATELET COUNT: tissue Blood; for ALANINE AMINOTRANSFERASE / ALBUMIN / ALKALINE PHOSPHATASE / ASPARTATE AMINOTRANSFERASE / BLOOD UREA NITROGEN / CARBON DIOXIDE / CHLORIDE / CHOLESTEROL / CREATINE PHOSPHOKINASE / CREATININE / GLUCOSE / LACTATE DEHYDROGENASE / LIPASE / PHOSPHORUS / POTASSIUM / SODIUM / TOTAL BILIRUBIN / TOTAL PROTEIN / URIC ACID: tissue Plasma
[1] = 0 mg/kg, 72 h, dose level Control, time 3 day
[2] = 0 mg/kg, 120 h, dose level Control, time 5 day
[3] = 14 mg/kg, 72 h, dose level Low, time 3 day

CCN(CC)CCOCCC1=CCC2CC1C2(C)C (centres undefined) [MYRTECAINE]
ABSOLUTE BASOPHIL [1]: 0 CELLS/uL | ABSOLUTE EOSINOPHIL [1]: 0 CELLS/uL | ABSOLUTE LYMPHOCYTE [1]: 10887 CELLS/uL | ABSOLUTE MONOCYTE [1]: 56 CELLS/uL | ABSOLUTE SEGMENTED NEUTROPHIL [1]: 1057 CELLS/uL | BASOPHIL [1]: 0% | EOSINOPHIL [1]: 0% | ERYTHROCYTE COUNT [1]: 5.31 x10E6/uL | HEMATOCRIT [1]: 33.78% | HEMOGLOBIN [1]: 13.4 G/DL | LEUKOCYTE COUNT [1]: 12 x10E3/uL | LYMPHOCYTE [1]: 91.17% | MEAN CORPUSCULAR HEMOGLOBIN [1]: 25.25 pg | MEAN CORPUSCULAR HEMOGLOBIN CONCENTRATION [1]: 39.65 G/DL | MEAN CORPUSCULAR VOLUME [1]: 63.65 fL | MONOCYTE [1]: 0.5% | NEUTROPHIL [1]: 8.33% | NUCLEATED RED BLOOD CELLS [1]: 0 /100WBC | PLATELET COUNT [1]: 1142 x10E3/uL | ALANINE AMINOTRANSFERASE [1]: 57.17 u/L | ALBUMIN [1]: 4.28 G/DL | ALKALINE PHOSPHATASE [1]: 425.83 u/L | ASPARTATE AMINOTRANSFERASE [1]: 93.83 u/L | BLOOD UREA NITROGEN [1]: 14.17 mg/dL | CARBON DIOXIDE [1]: 33.5 mmol/L | CHLORIDE [1]: 100 MEQ/L | CHOLESTEROL [1]: 70.33 mg/dL | CREATINE PHOSPHOKINASE [1]: 438.67 u/L | CREATININE [1]: 0.19 mg/dL | GLUCOSE [1]: 138.5 mg/dL | LACTATE DEHYDROGENASE [1]: 190.17 u/L | LIPASE [1]: 9.83 u/L | PHOSPHORUS [1]: 11.05 mg/dL | POTASSIUM [1]: 6.59 MEQ/L | SODIUM [1]: 143.58 MEQ/L | TOTAL BILIRUBIN [1]: 0.22 mg/dL | TOTAL PROTEIN [1]: 6.15 G/DL | URIC ACID [1]: 1.3 mg/dL | ABSOLUTE BASOPHIL [2]: 0 CELLS/uL | ABSOLUTE EOSINOPHIL [2]: 91.17 CELLS/uL | ABSOLUTE LYMPHOCYTE [2]: 11847.67 CELLS/uL | ABSOLUTE MONOCYTE [2]: 172.83 CELLS/uL | ABSOLUTE SEGMENTED NEUTROPHIL [2]: 1105 CELLS/uL | BASOPHIL [2]: 0% | EOSINOPHIL [2]: 0.67% | ERYTHROCYTE COUNT [2]: 5.35 x10E6/uL | HEMATOCRIT [2]: 33.65% | HEMOGLOBIN [2]: 13.42 G/DL | LEUKOCYTE COUNT [2]: 13.22 x10E3/uL | LYMPHOCYTE [2]: 89.83% | MEAN CORPUSCULAR HEMOGLOBIN [2]: 25.12 pg | MEAN CORPUSCULAR HEMOGLOBIN CONCENTRATION [2]: 39.9 G/DL | MEAN CORPUSCULAR VOLUME [2]: 63 fL | MONOCYTE [2]: 1.33% | NEUTROPHIL [2]: 8.17% | NUCLEATED RED BLOOD CELLS [2]: 0 /100WBC | PLATELET COUNT [2]: 1347.83 x10E3/uL | ALANINE AMINOTRANSFERASE [2]: 50 u/L | ALBUMIN [2]: 4.1 G/DL | ALKALINE PHOSPHATASE [2]: 329.17 u/L | ASPARTATE AMINOTRANSFERASE [2]: 77.17 u/L | BLOOD UREA NITROGEN [2]: 16.83 mg/dL | CARBON DIOXIDE [2]: 34.83 mmol/L | CHLORIDE [2]: 99.83 MEQ/L | CHOLESTEROL [2]: 75.67 mg/dL | CREATINE PHOSPHOKINASE [2]: 295.83 u/L | CREATININE [2]: 0.18 mg/dL | GLUCOSE [2]: 156.33 mg/dL | LACTATE DEHYDROGENASE [2]: 166.83 u/L | LIPASE [2]: 9.83 u/L | PHOSPHORUS [2]: 12.18 mg/dL | POTASSIUM [2]: 6.69 MEQ/L | SODIUM [2]: 143.97 MEQ/L | TOTAL BILIRUBIN [2]: 0.22 mg/dL | TOTAL PROTEIN [2]: 6.05 G/DL | URIC ACID [2]: 1.6 mg/dL | ABSOLUTE BASOPHIL [3]: 0 CELLS/uL | ABSOLUTE EOSINOPHIL [3]: 0 CELLS/uL | ABSOLUTE LYMPHOCYTE [3]: 10822.33 CELLS/uL | ABSOLUTE MONOCYTE [3]: 0 CELLS/uL | ABSOLUTE SEGMENTED NEUTROPHIL [3]: 1344.33 CELLS/uL | BASOPHIL [3]: 0% | EOSINOPHIL [3]: 0% | ERYTHROCYTE COUNT [3]: 5.32 x10E6/uL | HEMATOCRIT [3]: 33.73% | HEMOGLOBIN [3]: 13.37 G/DL | LEUKOCYTE COUNT [3]: 12.17 x10E3/uL | LYMPHOCYTE [3]: 89% | MEAN CORPUSCULAR HEMOGLOBIN [3]: 25.13 pg | MEAN CORPUSCULAR HEMOGLOBIN CONCENTRATION [3]: 39.6 G/DL | MEAN CORPUSCULAR VOLUME [3]: 63.4 fL | MONOCYTE [3]: 0% | NEUTROPHIL [3]: 11% | NUCLEATED RED BLOOD CELLS [3]: 0 /100WBC | PLATELET COUNT [3]: 1197.33 x10E3/uL | ALANINE AMINOTRANSFERASE [3]: 47.67 u/L | ALBUMIN [3]: 4.13 G/DL | ALKALINE PHOSPHATASE [3]: 420 u/L | ASPARTATE AMINOTRANSFERASE [3]: 80.67 u/L | BLOOD UREA NITROGEN [3]: 13.67 mg/dL | CARBON DIOXIDE [3]: 25.67 mmol/L | CHLORIDE [3]: 103.67 MEQ/L | CHOLESTEROL [3]: 75.67 mg/dL | CREATINE PHOSPHOKINASE [3]: 200.33 u/L | CREATININE [3]: 0.16 mg/dL | GLUCOSE [3]: 152.33 mg/dL | LACTATE DEHYDROGENASE [3]: 214.67 u/L | LIPASE [3]: 9 u/L | PHOSPHORUS [3]: 14.03 mg/dL | POTASSIUM [3]: 6.82 MEQ/L | SODIUM [3]: 146.53 MEQ/L | TOTAL BILIRUBIN [3]: 0.17 mg/dL | TOTAL PROTEIN [3]: 5.97 G/DL | URIC ACID [3]: 1.5 mg/dL
